{
  "source": "patent US20200375954A1",
  "about": "“THERAPEUTIC AGENT FOR FOOD COMPETENCE DISORDER IN STOMACH” (ZERIA PHARMACEUTICAL CO., LTD., priority 2002, published 2020)",
  "key": {"[1]": {"test_system": "adult male mongrel dog (gastric fundus)", "test": "Barostat test in dog", "type": "in vivo", "conditions": "for Volume increase of air-bag, ΔmL: method of Example 1, N=1; for Activity of alleviating impaired gastric accommodation (in words): barostat test in dog; for Activity of alleviating impaired gastric accommodation (in words) / Volume change of Air-bag: i.v.; for Volume change of Air-bag: 5 minutes after liquid test meal, mean air-bag volume after vs before agent, mean ± standard error", "procedure": "A gastric fistula (KN-365, D-14-C from Natsume Seisakusyo Co., Ltd.) was installed permanently in the center of stomach anterior wall of an adult male mongrel dog, and was used for air-bag insertion.\nThe fistula-installed dog was abstained from food for not shorter than 18 hours, followed by opening the gastric fistula and washing inside stomach by infusion of saline into stomach, before starting experiment. This procedure was repeated 2 to 3 times as appropriate. The air-bag (maximal volume: about 750 mL) fabricated using a commercially available polyethylene bag was inserted into stomach through gastric fistula and fixed using a silicone plug, followed by connection to barostat instrument and starting measurement under nonrestraint condition. Volume change of the air-bag was recorded on both a recorder and a computer.\nAfter insertion of the air-bag into stomach, the bag was once infused with air up to 500 mL, followed by immediate and complete air evacuation, and starting recording by adjusting initial inner pressure of the air-bag to be 6±2 mmHg. After stabilization for not shorter than 15 minutes, 50 mL of a liquid test meal (12.5 kcal, Besvion^RT from Fujisawa Pharmaceutical Co., Ltd.) dissolved in warm water (30 to 40° C.) was […] administered into stomach. Five minutes after administration of the test meal, a solvent and test agents were administrated intravenously. Mean air-bag volumes (mL) for each 5 minutes before administration of the test meal, along with before and after administration of the test agents were calculated using a computer analyzing system to compare differences in mean air-bag volumes (mL) before and after administration of the test agents."}, "[2]": {"conditions": "known side effect; cited from earlier work"}, "[3]": {"test_system": "patient with functional dyspepsia (stomach)", "test": "Barostat test in human", "type": "in vivo", "procedure": "A patient with functional dyspepsia, based on Rome II standard, was fasted overnight (for not shorter than 12 hours). Oral administration of 300 mg of a compound a, hydrochloride, and placebo has been conducted by a responsive doctor of clinical trial. Thirty minutes later, a polyvinyl adhesive plastic bag with dual ducts (1100 mL, maximal diameter: 17 cm, from Meditronic-Synetics Medical Ltd., Enfield, UK) was folded up to a small piece and introduced into stomach through mouth or nose, and the ducts were fixed on chin by an adhesive tape. The location of the bug in fundus of stomach was confirmed by radioscopy.\nThe polyvinyl tubing was connected to a computer controlled volume-replacement pressure regulator. This regulator can simultaneously monitor pressure and volume with sampling rate of 8 times per second, and also can load volume ramps and pressurizing steps with various rates. Trial subjects were kept in recumbent position and predetermined volume of air (300 mL) was infused for 2 minutes to expand the bug in stomach, and again the air was evacuated completely. After stabilization for 10 minutes, the trial subjects were allowed to keep relaxed by slightly skewing knees on a bed.\nAfter 30 minutes of adaptation period, minimum invasive gastric dilatation pressure (MDP), that is, the minimum pressure to give not less than 30 mL of the bag inner volume, was measured by increasing inner pressure by 1 mmHg per minute. This pressure (MDP) […] equilibrates intraabdominal pressure. Then, pressure was increased from the MDP stepwisely with isobaric expansions by each 2 mmHg. At each pressure increase step, corresponding inner volume of stomach was recorded, and kept for 2 minutes. At the end of each expansion step, patients were asked to express feeling of stimulation at upper abdomen by scores from 0 to 6 with verbal explanation. The expansion procedure was terminated when inner volume of the bag reached to 1000 mL or the patient complained discomfort or soreness (score: 5 or 6).\nFurther, after 30 minutes of adaptation period, the pressure level was adjusted to the MDP+2 mmHg, and kept for 90 minutes. Thirty minutes later, a mixed liquid diet (200 mL, 300 kcal, protein 13%, carbohydrate 39%, Nutridrink™, Nutricia) was given by oral ingestion, followed by measurement of stomach tension over further 60 minutes.\nAverage inner volume of the balloon for each 2 minutes expansion period was obtained from the recorded value. […]\nTo evaluate stomach tension before and after meal, average volume of the balloon was measured continuously at every 5 minutes. The maximum relaxation value was obtained as difference between average volume before meal and the maximum volume after meal among average volumes measured at every 5 minutes after meal."}},
  "note": "Structures can show the parent of a compound that is named as a salt.",
  "data": [
    {"smiles": "COc1cc(Cl)c(C(=O)Nc2nc(C(=O)NCCN(C(C)C)C(C)C)cs2)cc1OC", "note": "[Compound b, Maleate, 2-[N-(2-chloro-4,5-dimethoxybenzoyl)-amino]-4-[(2-diisopropylaminoethyl)aminocarbonyl]-1,3-thiazole]", "values": [
      {"measurement": "Volume increase of air-bag, ΔmL", "setting": "[1]; 1 mg/kg i.v.", "result": 29.7, "unit": "mL"},
      {"measurement": "Activity of alleviating impaired gastric accommodation (in words)", "setting": "[1]", "result": "excellent activity of alleviating impaired gastric accommodation"}
    ]},
    {"smiles": "COc1cc(N)c(Cl)cc1C(=O)NC1CCN(CCCOc2ccc(F)cc2)CC1OC", "note": "(stereo not drawn) [Cisapride, reference compound]", "values": [
      {"measurement": "Extension of Q-T interval (adverse effect)", "setting": "[2]", "result": "serious side effect such as extension of Q-T interval"},
      {"measurement": "Volume change of Air-bag", "setting": "[1]; 0.3 mg/kg", "result": "3.6 ± 25.0", "unit": "mL"}
    ]},
    {"smiles": "COc1cc(O)c(C(=O)Nc2cc(C(=O)NCCN(C(C)C)C(C)C)co2)cc1OC.O=C(O)/C=C\\C(=O)O", "note": "[Compound d, Maleate, 2-[N-(4,5-dimethoxy-2-hydroxybenzoyl)amino]-4-[(2-diisopropyl-aminoethyl)aminocarbonyl]furan]", "values": [
      {"measurement": "Volume increase of air-bag, ΔmL", "setting": "[1]; 3 mg/kg i.v.", "result": 11.4, "unit": "mL"},
      {"measurement": "Activity of alleviating impaired gastric accommodation (in words)", "setting": "[1]", "result": "excellent activity of alleviating impaired gastric accommodation"}
    ]},
    {"smiles": "COc1cc(O)c(C(=O)Nc2nc(C(=O)NCCN(C(C)C)C(C)C)cs2)cc1OC", "note": "[Compound a, hydrochloride, 2-[N-(4,5-dimethoxy-2-hydroxybenzoyl)amino]-4-[(2-diisopropylaminoethyl)aminocarbonyl]-1,3-thiazole]", "values": [
      {"measurement": "Effect on maximum relaxation value of stomach after meal (in words)", "setting": "[3]; 300 mg, p.o.", "result": "significantly increased"},
      {"measurement": "Change in max. relaxation volume", "setting": "[3]; 300 mg, p.o., N=17, after meal", "result": "24.3 ± 172.3", "unit": "mL"},
      {"measurement": "Max. relaxation volume after treatment", "setting": "[3]; 300 mg, p.o., N=17, after meal", "result": 313.4, "unit": "mL"},
      {"measurement": "Max. relaxation volume before treatment", "setting": "[3]; baseline of the 300 mg p.o. group, N=17, after meal", "result": 295.5, "unit": "mL"},
      {"measurement": "Volume change of Air-bag", "setting": "[1]; 3 mg/kg", "result": "50.8 ± 16.7", "unit": "mL"},
      {"measurement": "Volume change of Air-bag", "setting": "[1]; 3 mg/kg, listed as compound a, hydrochloride", "result": 50.8, "unit": "mL"},
      {"measurement": "Expansion effect compared with cisapride", "setting": "[1]; compound a 3 mg/kg i.v. vs cisapride 0.3 mg/kg i.v.", "result": "surpassed that of cisapride"}
    ]},
    {"smiles": "COc1ccc(C(=O)Nc2nc(C(=O)NCCN(C(C)C)C(C)C)cs2)cc1OC", "note": "[Compound c, hydrochloride, 2-[N-(4,5-dimethoxy-benzoyl)amino]-4-[(2-diisopropylaminoethyl)amino-carbonyl]-1,3-thiazole]", "values": [
      {"measurement": "Volume increase of air-bag, ΔmL", "setting": "[1]; 1 mg/kg i.v.", "result": 58.2, "unit": "mL"},
      {"measurement": "Activity of alleviating impaired gastric accommodation (in words)", "setting": "[1]", "result": "excellent activity of alleviating impaired gastric accommodation"}
    ]}
  ]
}
